{
  "source": "patent US6989396B2",
  "about": "“Tropane alkaloid multidrug resistance inhibitors from Erythroxylum pervillei and use of the same” (The Board of Trustees of the University of Illinois, priority 2001, dated 2006)",
  "key": {"MDR1 (Pgp) expression": {"tested_on": "MDR1 (Pgp) expression", "assay": "Western blot analysis of MDR1 expression", "assay_type": "cell-based, human", "conditions": "KB-V1 and CEM/VLB100 cells, 72 hours; pervilleine A up to 45 μM, verapamil up to 44 μM", "experimental": "Western blot analysis of MDR1 expression. […] Cells (7.5×10^5 cells as starting cell amount) were harvested using SDS lysis buffer [20 mM Tris-HCl (pH 6.8) containing 0.4% SDS (w/v), 5% glycerol (v/v), 0.006% bromophenol blue, 2% β-mer-captoethanol], and lysates were boiled for 10 minutes and stored at −20° C. Aliquots of lysates were used for protein determinations (bicinchoninic acid protein assay kit with BSA as standard), and equivalent amounts of protein were electrophoresed by SDS-PAGE with precast 7.5% Tris-glycine acrylamide gels (Novex, San Diego, Calif.). Following transfer to polyvinylidene difluoride membranes, nonspecific binding sites were blocked with 5% nonfat dry milk. Blotting was performed with rabbit polyclonal antibody mdr (Ab-1) (Oncogene Research Products, Inc.) and analyzed by streptavidin horseradish peroxidase-conjugated secondary antibody (Amersham Life Science) and visualized using a ECL western blotting detection system (Amersham Life Science)."}, "[1]": {"tested_on": "KB, oral epidermoid carcinoma", "assay": "In vitro cytotoxicity, human tumor panel: KB", "assay_type": "cell-based", "conditions": "Homo sapiens, read-out: ED50 KB", "experimental": "(§1) Cytotoxicity assay. Compounds 1–9 were evaluated for cytotoxic activity against a panel of human cancer cell lines, including KB-V1 in the presence and absence of VLB, according to an established protocol (68)."}, "[2]": {"tested_on": "SKOV3 (ovarian adenocarcinoma)", "assay": "Cytotoxicity in ovarian adenocarcinoma SKOV3 (pGp -ve)", "assay_type": "cell-based", "conditions": "Homo sapiens, SK-OV-3, read-out: IC50 SKOV3 (pGp − ve)", "experimental": "as §1"}, "[3]": {"tested_on": "SKVLB (ovarian adenocarcinoma, multidrug resistance)", "assay": "Multidrug resistance inhibition in SKVLB (pGp +ve)", "assay_type": "cell-based, human"}, "Lu1, lung cancer": {"tested_on": "Lu1, lung cancer", "assay": "In vitro cytotoxicity, human tumor panel: Lu1", "assay_type": "cell-based", "conditions": "Homo sapiens, read-out: ED50 Lu1", "experimental": "as §1"}, "[4]": {"tested_on": "LNCaP, hormone-dependent prostate cancer", "assay": "In vitro cytotoxicity, human tumor panel: LNCaP", "assay_type": "cell-based", "conditions": "Homo sapiens, LNCaP, read-out: ED50 LNCaP", "experimental": "as §1"}, "KB-V1, drug resistant KB": {"tested_on": "KB-V1, drug resistant KB", "assay": "In vitro cytotoxicity, human tumor panel: KB-V1 with or without vinblastine", "assay_type": "cell-based", "experimental": "as §1"}, "MDR1 mRNA": {"tested_on": "MDR1 mRNA", "assay": "RT-PCR analysis of MDR1 mRNA expression", "assay_type": "cell-based, human", "conditions": "KB-V1 and CEM/VLB100 cells, 72 hours; pervilleine A up to 34 μM (up to 45 μM), verapamil up to 44 μM", "experimental": "RT-PCR analysis of MDR1 mRNA expression. […] Total RNA was isolated from cultured KB-3, KB-V1, CEM and CEM/VLB100 cells with TRIzol reagent (Life Technologies, Inc.) (33), and quantified by UV absorbance. The reverse transcription of RNA was performed by using the SUPERScript™ Preamplification System (Life Technologies, Inc.) in a final volume of 21 μl containing 5×First Strain Synthesis Buffer, 2.5 mM MgCl2, 0.5 mM each dNTP, […], 2 units of RNAse inhibitor, 200 units of Super-Scrip II reverse transcriptase, 0.5 μg oligo (dT)12-18, 2 μg of total RNA (3 μg for CEM and CEM/VLB100 cells), and DEPC-treated water. After incubation at 42° C. for 50 minutes, the room temperature reaction was terminated by heating to 70° C. for 15 minutes. To the newly synthesized cDNA (2 μl), a PCR mixture containing 1.4 mM MgCl2 (1.2 mM for CEM and CEM/VLB100 cells), 2.5 units of Taq polymerase, 0.2 μmol (0.6 μmol for CEM and CEM/VLB100 cells) of primers based on the MDR1 gene (35) and custom synthesized by Ana-Gen Technology, Inc. (Palo Alto, Calif.) (5′-[…]-3′; 5′-[…]-3′) (35). As an internal control, 0.125 μmol (0.1 μmol for CEM and CEM/VLB100 cells) of primers for GAPDH (5′-[…]-3′; 5′-[…]-3′) (36) were added (final volume to 50 μl). […]"}, "KB-V1 cells": {"tested_on": "KB-V1 cells", "assay": "In vivo hollow fiber test: KB-V1", "design": "species or system NCr nu/nu mice", "experimental": "In vivo hollow fiber test. […] Confluent monolayers of KB-3, KB-V1 or KB-8-5 cells were harvested, collected by centrifugation and resuspended in conditioned medium at a concentration of 7.5×10^5 cells/ml.\nTest compounds were administrated once daily by intraperitoneal injection from day 3–6 after implantation. Body weights were measure daily.\nAfter incubating at 37° C. for 4 hours, the culture medium was aspirated and the samples were washed twice with normal saline containing 2.5% protamine sulfate solution by overnight incubation at 4° C. […] The formazan was extracted from each sample with DMSO (250 μl/well) for 4 hours at room temperature on a rotation platform."}, "[5]": {"conditions": "summation of single-agent inhibitions"}},
  "note": "Entries after “also recorded” stand apart in the source; their conditions may differ. Like-named read-outs stand apart in the source and are kept apart here.",
  "data": [
    {"molecule": "COc1cc(C=CC(=O)O[C@H]2[C@@H](O)[C@@H]3C[C@H](OC(=O)c4cc(OC)c(OC)c(OC)c4)C[C@H]2N3C)cc(OC)c1OC", "note": "[Compound 3, 3α-(3,4,5-trimethoxybenzoyloxy)-6β-(3,4,5-trimethoxycinnamoyloxy)-7β-hydroxytropane]", "values": [
      {"measurement": "effect on levels of Pgp (MDR1 protein expression)", "setting": "MDR1 (Pgp) expression", "value": "did not alter expression levels; also recorded: did not significantly alter; also recorded: did not significantly affect"},
      {"measurement": "IC50", "setting": "[1]", "value": "> 20", "unit": "µg/mL"},
      {"measurement": "IC50", "setting": "[2]", "value": "> 10", "unit": "µM"},
      {"measurement": "IC50", "setting": "[3]; Homo sapiens, read-out: IC50 BSKVLB (pGp + ve)", "value": "> 10", "unit": "µM"},
      {"measurement": "IC50", "setting": "[3]; read-out: IC50 SKVLB (pGp + ve), addition of adriamycin, Addition of 1 μm adriamycin", "value": 0.65, "unit": "µM"},
      {"measurement": "IC50", "setting": "Lu1, lung cancer", "value": "> 20", "unit": "µg/mL"},
      {"measurement": "IC50", "setting": "[4]", "value": "> 20", "unit": "µg/mL"},
      {"measurement": "IC50", "setting": "KB-V1, drug resistant KB; Homo sapiens, KB-V1, drug-resistant KB assessed in the absence of vinblastine, read-out: ED50 KB-V1−", "value": "> 20", "unit": "µg/mL"},
      {"measurement": "ED50 KB-V1+", "setting": "KB-V1, drug resistant KB; drug resistant KB assessed in presence of vinblastine (1 μg/mL)", "value": 0.3, "unit": "µg/mL"},
      {"measurement": "effect on MDR1 mRNA (transcription of MDR1)", "setting": "MDR1 mRNA", "value": "no significant effect; also recorded: did not significantly alter; also recorded: did not significantly affect"},
      {"measurement": "inhibition of cell growth when used in combination with vinblastine", "setting": "KB-V1 cells; KB-V1 or KB-8-5 cells in hollow fibers implanted into NCr nu/nu mice", "value": "up to 75%"},
      {"measurement": "Calculated inhibition (vinblastine + reversing agent as single agents), KB-V1, i.p. site", "setting": "KB-V1 cells; [5]", "value": 2, "unit": "%"},
      {"measurement": "Calculated inhibition (vinblastine + reversing agent as single agents), KB-V1, s.c. site", "setting": "KB-V1 cells; [5]", "value": 3.3, "unit": "%"},
      {"measurement": "Observed inhibition from coadministration with vinblastine, KB-V1, s.c. site", "setting": "KB-V1 cells; vinblastine 250 μg/kg + reversing agent 0.136 mmol/kg", "value": "14.6 (P = 0.188) %"},
      {"measurement": "Observed inhibition from coadministration with vinblastine, KB-V1, i.p. site", "setting": "KB-V1 cells; vinblastine 250 μg/kg + reversing agent 0.136 mmol/kg, i.p. injection once daily days 3–6, listed as pervilleine A", "value": "68.6 (P < 0.0001) %"},
      {"measurement": "Growth inhibition, single agent, KB-V1, s.c. site", "setting": "KB-V1 cells; vinblastine 250 μg/kg, reversing agents 0.136 mmol/kg, i.p. injection once daily days 3–6", "value": 3.3, "unit": "%"},
      {"measurement": "Growth inhibition, single agent, KB-V1, i.p. site", "setting": "KB-V1 cells; vinblastine 250 μg/kg, reversing agents 0.136 mmol/kg, i.p. injection once daily days 3–6, fibers retrieved day 7, MTT", "value": 1, "unit": "%"}
    ]}
  ]
}
